Measurements: US20100144712A1 (priority 2007, published 2010)
Values after ≈ are worked out from the molar mass of the structure shown.

Columns and labels:
Format in all cases: cell-based
[1] = system: Candida albican ATCC MYA-574; experiment: In vitro antifungal activity (MIC80), Candida albican ATCC MYA-574; conditions: Candida; Table 2, MYA 574; read-out: Minimal inhibitory concentration (MIC80)
Procedure: (§1) In vitro antifungal activities of the inventive antifungal compounds were evaluated using test strains including Candida albican (ATCC 90873, 204276, 62342, 64124, 64550, 96901, MYA-573, MYA-574, MYA-575, MYA-576, MYA-1003) and Aspergillus fumigatus (ATCC 16424). Test samples and positive control samples were prepared by dissolving the inventive compounds and comparative compounds, i.e., amphotericin B, fluconazole and itraconazole, in DMSO, respectively, and each successively diluted with medium to obtain test and positive control solutions having test compound concentrations of 0.125 μg/ml to a maximum concentration not generating turbidity. Minimal inhibitory concentration (MIC80) of each compound was determined as the lowest concentration of the test compounds required to reduce growth by 80% relative to a control strain not treated.
(§2) 1) Test strain: Candida albican ATCC 90873, 204276, 62342, 64124, 64550, 96901, MYA-573, MYA-574, MYA-575, MYA-576, MYA-1003, and Aspergillus fumigatus ATCC 16424 were commercially obtained from The American Type Culture Collection (ATCC) and subcultured in CHEMON Co. Ltd. (amphotericin B was commercially purchased from Sigma, and fluconazole and itraconazole were prepared according to methods described in British Patent No. 2,099,818; and U.S. Pat. No. 4,267,179, respectively).
(§3) 2) Medium and culture condition: Candida albican was cultured in Sabourad Dextrose Agar, YM Agar or Potato Dextrose Agar according to ATCC information at a temperature of 37° C., 35° C., 30° C. or 25° C. Aspergillus fumigatus was cultured in Malt Extract Agar or Potato Dextrose Agar at a temperature ranging from 24 to 27° C.
(§4) 3) Preparation of test samples: the inventive compounds and comparative compounds were each diluted with DMSO to obtain 1 to 2 ml of a test sample in a concentration of 100-folds of the determining maximum concentration (256 μg/ml).
(§5) The test samples were each successively diluted with RPMI 1640 to obtain test solutions having concentrations of […] in a 12×75 mm sterilized disposable culture tube. The final concentration of DMSO was adjusted to […] (v/v).
(§6) 5) Preparation of strain solution and inoculation
(§7) Candida albican strains were each subcultured in Sabourad Dextrose Agar, YM Agar or Potato Dextrose Agar medium at 35° C. for 2˜3 days. In the case of yeasts, a single colony was taken from prominent colonies and suspended in 0.85% sterile physiological saline solution and the turbidity of the suspension was adjusted to 80˜82% at 530 nm, and then diluted 50-fold with RPMI 1640 medium to 1.0×10^3˜5.0×10^3 CFU/ml. The turbidity of fungi was adjusted to 80˜82% and the suspension was diluted 50-fold to […]. Aspergillus fumigatus strains were subcultured in Malt Extract Agar for 7˜10 days, and a single colony was taken from prominent colonies and suspended in 0.85% sterile physiological saline solution and the suspension was adjusted to 0.108 at 530 nm, and then diluted 1000-fold with RPMI 1640 medium to 0.4×10^2˜5×10^4 CFU/ml. The turbidity of fungi was adjusted to 80˜82% and the suspension was diluted 50-fold to 0.4102˜0.5104 CFU/ml.
(§8) The strain solutions thus obtained were each seeded into a sterilized 96-well microplate, 0.1 ml of each test solution were added thereto, and […] of alamarblue was treated to each well (Biosource, #DAL1100). This procedure was repeated 2 times.
(§9) Minimal inhibitory concentration (MIC80) of each compound was determined as the lowest concentration of the test compounds required to reduce growth by 80% relative to a control strain not treated.

[2] = system: Candida albican ATCC 62342; experiment: In vitro antifungal activity (MIC80), Candida albican ATCC 62342; conditions: Candida, ATCC62342; Table 2, 62342; read-out: Minimal inhibitory concentration (MIC80)
Procedure: as §1, §2, §3, §4, §5, §6, §7, §8, §9

[3] = system: Candida albican ATCC MYA-1003; experiment: In vitro antifungal activity (MIC80), Candida albican ATCC MYA-1003; conditions: Candida; Table 2, MYA 1003; read-out: Minimal inhibitory concentration (MIC80)
Procedure: as §1, §2, §3, §4, §5, §6, §7, §8, §9

[4] = system: Candida albican ATCC MYA-575; experiment: In vitro antifungal activity (MIC80), Candida albican ATCC MYA-575; conditions: Candida; Table 2, MYA 575; read-out: Minimal inhibitory concentration (MIC80)
Procedure: as §1, §2, §3, §4, §5, §6, §7, §8, §9

[5] = system: Candida albican ATCC 64550; experiment: In vitro antifungal activity (MIC80), Candida albican ATCC 64550; conditions: Candida, ATCC64550; Table 2, 64550; read-out: Minimal inhibitory concentration (MIC80)
Procedure: as §1, §2, §3, §4, §5, §6, §7, §8, §9

[6] = system: Candida albican ATCC 64124; experiment: In vitro antifungal activity (MIC80), Candida albican ATCC 64124; conditions: Candida, ATCC64124; Table 2, 64124; read-out: Minimal inhibitory concentration (MIC80)
Procedure: as §1, §2, §3, §4, §5, §6, §7, §8, §9

[7] = system: Candida albican ATCC 90873; experiment: In vitro antifungal activity (MIC80), Candida albican ATCC 90873; conditions: Candida, ATCC90873; Table 2, ATCC 90873; read-out: Minimal inhibitory concentration (MIC80)
Procedure: as §1, §2, §3, §4, §5, §6, §7, §8, §9

[8] = system: Candida albican ATCC MYA-573; experiment: In vitro antifungal activity (MIC80), Candida albican ATCC MYA-573; conditions: Candida; Table 2, MYA 573; read-out: Minimal inhibitory concentration (MIC80)
Procedure: as §1, §2, §3, §4, §5, §6, §7, §8, §9

[9] = system: Candida albican ATCC 96901; experiment: In vitro antifungal activity (MIC80), Candida albican ATCC 96901; conditions: Candida, ATCC96901; Table 2, ATCC 96901; read-out: Minimal inhibitory concentration (MIC80)
Procedure: as §1, §2, §3, §4, §5, §6, §7, §8, §9

[10] = system: Candida albican ATCC MYA-576; experiment: In vitro antifungal activity (MIC80), Candida albican ATCC MYA-576; conditions: Candida; Table 2, MYA 576; read-out: Minimal inhibitory concentration (MIC80)
Procedure: as §1, §2, §3, §4, §5, §6, §7, §8, §9

Row | SMILES | MIC80 [1] [mg/L] | MIC80 [2] [mg/L] | MIC80 [3] [mg/L] | MIC80 [4] [mg/L] | MIC80 [5] [mg/L] | MIC80 [6] [mg/L] | MIC80 [7] [mg/L] | MIC80 [8] [mg/L] | MIC80 [9] [mg/L] | MIC80 [10] [mg/L]
1 | C[C@@H](N1CCN(c2cccc(OCc3cccs3)n2)CC1)[C@](O)(Cn1cncn1)c1ccc(F)cc1F [Example 25, (2R,3R)-2-(2,4-difluorophenyl)-3-(4-(6-(thiophen-2-ylmethoxy)pyridin-2-yl)piperazin-1-yl)-1-(1H-1,2,4-triazol-1-yl)butan-2-ol] | > 128 | > 128 | > 128 | 1 (≈ 1.9 µM) | > 128 | > 128 | 0.25 (≈ 0.475 µM) | 2 (≈ 3.8 µM) | > 128 | 0.5 (≈ 0.949 µM)
2 | C[C@@H](N1CCN(c2cccc(OCCN3CCOCC3)n2)CC1)[C@](O)(Cn1cncn1)c1ccc(F)cc1F [Example 26, (2R,3R)-2-(2,4-difluorophenyl)-3-(4-(6-(2-morpholinoethoxy)pyridin-2-yl)piperazin-1-yl)-1-(1H-1,2,4-triazol-1-yl)butan-2-ol] | 16 (≈ 29.4 µM) | 4 (≈ 7.36 µM) | > 128 | 0.5 (≈ 0.92 µM) | 8 (≈ 14.7 µM) | > 128 | 0.25 (≈ 0.46 µM) | 8 (≈ 14.7 µM) | > 128 | 0.5 (≈ 0.92 µM)
3 | C[C@@H](N1CCN(c2cccc(N(C)CCCN3CCOCC3)n2)CC1)[C@](O)(Cn1cncn1)c1ccc(F)cc1F [Example 27, (2R,3R)-2-(2,4-difluorophenyl)-3-(4-(6-(methyl(3-morpholinopropyl)amino)pyridin-2-yl)piperazin-1-yl)-1-(1H-1,2,4-triazol-1-yl)butan-2-ol] | 8 (≈ 14 µM) | 2 (≈ 3.5 µM) | 64 (≈ 112 µM) | 1 (≈ 1.75 µM) | 4 (≈ 7.01 µM) | 32 (≈ 56.1 µM) | 0.25 (≈ 0.438 µM) | 4 (≈ 7.01 µM) | 16 (≈ 28 µM) | 0.5 (≈ 0.876 µM)
4 | C[C@@H](N1CCN(c2cccc(N(C)CCc3cccs3)n2)CC1)[C@](O)(Cn1cncn1)c1ccc(F)cc1F [Example 28, (2R,3R)-2-(2,4-difluorophenyl)-3-(4-(6-(methyl(2-(thiophen-2-yl)ethyl)amino)pyridin-2-yl)piperazin-1-yl)-1-(1H-1,2,4-triazol-1-yl)butan-2-ol] | > 128 | > 128 | > 128 | 1 (≈ 1.81 µM) | > 128 | > 128 | 0.25 (≈ 0.452 µM) | > 128 | > 128 | 1 (≈ 1.81 µM)
5 | C[C@@H](N1CCN(c2ccc(OCc3ccccc3)nc2)CC1)[C@](O)(Cn1cncn1)c1ccc(F)cc1F [Example 29, (2R,3R)-3-(4-(6-(benzyloxy)pyridin-3-yl)piperazin-1-yl)-2-(2,4-difluorophenyl)-1-(1H-1,2,4-triazol-1-yl)butan-2-ol] | 1 (≈ 1.92 µM) | 0.5 (≈ 0.96 µM) | > 128 | 0.25 (≈ 0.48 µM) | 1 (≈ 1.92 µM) | 4 (≈ 7.68 µM) | 0.125 (≈ 0.24 µM) | 1 (≈ 1.92 µM) | > 128 | 0.125 (≈ 0.24 µM)
6 | C[C@@H](N1CCN(c2ccc(OCC3CC3)nc2)CC1)[C@](O)(Cn1cncn1)c1ccc(F)cc1F [Example 30, (2R,3R)-3-(4-(6-(cyclopropylmethoxy)pyridin-3-yl)piperazin-1-yl)-2-(2,4-difluorophenyl)-1-(1H-1,2,4-triazol-1-yl)butan-2-ol] | 4 (≈ 8.26 µM) | 1 (≈ 2.06 µM) | > 128 | 0.125 (≈ 0.258 µM) | 1 (≈ 2.06 µM) | 32 (≈ 66 µM) | 0.125 (≈ 0.258 µM) | 1 (≈ 2.06 µM) | 32 (≈ 66 µM) | 0.125 (≈ 0.258 µM)
7 | C[C@@H](N1CCN(c2ccc(OC3CCCC3)nc2)CC1)[C@](O)(Cn1cncn1)c1ccc(F)cc1F [Example 31, (2R,3R)-3-(4-(6-(cyclopentyloxy)pyridin-3-yl)piperazin-1-yl)-2-(2,4-difluorophenyl)-1-(1H-1,2,4-triazol-1-yl)butan-2-ol] | 4 (≈ 8.02 µM) | 1 (≈ 2.01 µM) | > 128 | 0.25 (≈ 0.501 µM) | 1 (≈ 2.01 µM) | 64 (≈ 128 µM) | 0.125 (≈ 0.251 µM) | 2 (≈ 4.01 µM) | 4 (≈ 8.02 µM) | 0.25 (≈ 0.501 µM)
8 | CCCCOc1ccc(N2CCN([C@H](C)[C@](O)(Cn3cncn3)c3ccc(F)cc3F)CC2)cn1 [Example 32, (2R,3R)-3-(4-(6-(butyloxy)pyridin-3-yl)piperazin-1-yl)-2-(2,4-difluorophenyl)-1-(1H-1,2,4-triazol-1-yl)butan-2-ol] | 4 (≈ 8.22 µM) | 1 (≈ 2.06 µM) | > 128 | 0.5 (≈ 1.03 µM) | 1 (≈ 2.06 µM) | 4 (≈ 8.22 µM) | 0.125 (≈ 0.257 µM) | 1 (≈ 2.06 µM) | 8 (≈ 16.4 µM) | 0.125 (≈ 0.257 µM)
9 | CC(C)Oc1ccc(N2CCN([C@H](C)[C@](O)(Cn3cncn3)c3ccc(F)cc3F)CC2)cn1 [Example 33, (2R,3R)-2-(2,4-difluorophenyl)-3-(4-(6-(isopropyloxy)pyridin-3-yl)piperazin-1-yl)-1-(1H-1,2,4-triazol-1-yl)butan-2-ol] | 4 (≈ 8.46 µM) | 2 (≈ 4.23 µM) | > 128 | 0.125 (≈ 0.265 µM) | 4 (≈ 8.46 µM) | 64 (≈ 135 µM) | 0.125 (≈ 0.265 µM) | 2 (≈ 4.23 µM) | 64 (≈ 135 µM) | 0.125 (≈ 0.265 µM)
